The target of assay [1] is T1, TGF-beta receptor type-1 (Homo sapiens) (UniProt P36897).
T1 sequence (whole entry): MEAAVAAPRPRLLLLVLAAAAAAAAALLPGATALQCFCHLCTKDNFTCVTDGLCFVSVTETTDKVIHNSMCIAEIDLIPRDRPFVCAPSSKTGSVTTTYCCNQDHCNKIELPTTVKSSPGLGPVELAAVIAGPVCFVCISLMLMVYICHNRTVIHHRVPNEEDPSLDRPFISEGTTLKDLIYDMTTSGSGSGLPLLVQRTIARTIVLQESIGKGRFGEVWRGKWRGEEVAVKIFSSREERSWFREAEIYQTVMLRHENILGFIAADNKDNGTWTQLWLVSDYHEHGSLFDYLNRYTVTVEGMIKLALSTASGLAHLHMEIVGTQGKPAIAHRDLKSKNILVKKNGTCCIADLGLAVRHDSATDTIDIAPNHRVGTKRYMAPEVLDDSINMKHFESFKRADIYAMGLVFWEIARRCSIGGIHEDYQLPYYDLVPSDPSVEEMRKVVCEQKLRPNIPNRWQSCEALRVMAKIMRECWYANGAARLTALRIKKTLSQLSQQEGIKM
In words: Inhibition of human ALK5 at 500 nM by HotSpot assay relative to control.

The target of assay [2] is Calcium/calmodulin-dependent protein kinase type 1D (Homo sapiens) (UniProt Q8IU85). Kind of assay: Inhibition of human CAMK1d at 500 nM by HotSpot assay relative to control.
Assay [3] concerns the target Cyclin-dependent kinase 5/CDK5 activator 1 (Homo sapiens) (UniProt Q00535+Q15078). In words: Inhibition of human CDK5/p35 at 500 nM by HotSpot assay relative to control. Type of assay: protein-complex assay.
In assay [4] the target is CDK6/cyclin D1 (Homo sapiens) (UniProt P24385+Q00534). In words: Inhibition of human CDK6/cyclin D1 at 500 nM by HotSpot assay relative to control. It is filed as protein-complex assay.
Assay [5] deals with T2, Serine/threonine-protein kinase haspin (Homo sapiens) (UniProt Q8TF76).
T2 sequence (whole entry): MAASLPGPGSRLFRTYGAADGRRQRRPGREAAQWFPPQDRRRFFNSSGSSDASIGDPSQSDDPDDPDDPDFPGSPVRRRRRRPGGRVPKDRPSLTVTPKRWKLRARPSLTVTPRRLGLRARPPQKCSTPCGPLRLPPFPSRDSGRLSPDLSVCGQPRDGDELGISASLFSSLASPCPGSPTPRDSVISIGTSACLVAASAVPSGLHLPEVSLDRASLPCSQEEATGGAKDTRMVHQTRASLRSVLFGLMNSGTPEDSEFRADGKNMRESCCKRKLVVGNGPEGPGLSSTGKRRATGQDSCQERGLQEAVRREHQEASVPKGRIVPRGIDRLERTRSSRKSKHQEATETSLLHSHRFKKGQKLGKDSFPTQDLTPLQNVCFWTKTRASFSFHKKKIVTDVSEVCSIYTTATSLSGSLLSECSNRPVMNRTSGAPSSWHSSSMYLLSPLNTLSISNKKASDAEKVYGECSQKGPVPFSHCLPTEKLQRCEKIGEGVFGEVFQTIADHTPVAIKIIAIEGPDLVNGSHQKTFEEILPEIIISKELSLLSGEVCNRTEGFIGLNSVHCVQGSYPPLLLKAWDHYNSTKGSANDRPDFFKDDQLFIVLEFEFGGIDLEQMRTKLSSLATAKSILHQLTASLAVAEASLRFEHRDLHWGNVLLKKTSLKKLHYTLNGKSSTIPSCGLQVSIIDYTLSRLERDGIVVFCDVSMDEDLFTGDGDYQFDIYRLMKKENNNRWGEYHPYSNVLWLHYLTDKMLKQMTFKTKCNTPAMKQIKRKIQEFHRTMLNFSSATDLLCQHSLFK
In words: Inhibition of human Haspin at 500 nM by HotSpot assay relative to control.

The target of assay [6] is Dual specificity mitogen-activated protein kinase kinase 1 (Homo sapiens) (UniProt Q02750). In words: Inhibition of human MEK1 at 500 nM by HotSpot assay relative to control.
Assay [7] has as its target T3, Muscle, skeletal receptor tyrosine-protein kinase (Homo sapiens) (UniProt O15146).
T3 sequence (whole entry): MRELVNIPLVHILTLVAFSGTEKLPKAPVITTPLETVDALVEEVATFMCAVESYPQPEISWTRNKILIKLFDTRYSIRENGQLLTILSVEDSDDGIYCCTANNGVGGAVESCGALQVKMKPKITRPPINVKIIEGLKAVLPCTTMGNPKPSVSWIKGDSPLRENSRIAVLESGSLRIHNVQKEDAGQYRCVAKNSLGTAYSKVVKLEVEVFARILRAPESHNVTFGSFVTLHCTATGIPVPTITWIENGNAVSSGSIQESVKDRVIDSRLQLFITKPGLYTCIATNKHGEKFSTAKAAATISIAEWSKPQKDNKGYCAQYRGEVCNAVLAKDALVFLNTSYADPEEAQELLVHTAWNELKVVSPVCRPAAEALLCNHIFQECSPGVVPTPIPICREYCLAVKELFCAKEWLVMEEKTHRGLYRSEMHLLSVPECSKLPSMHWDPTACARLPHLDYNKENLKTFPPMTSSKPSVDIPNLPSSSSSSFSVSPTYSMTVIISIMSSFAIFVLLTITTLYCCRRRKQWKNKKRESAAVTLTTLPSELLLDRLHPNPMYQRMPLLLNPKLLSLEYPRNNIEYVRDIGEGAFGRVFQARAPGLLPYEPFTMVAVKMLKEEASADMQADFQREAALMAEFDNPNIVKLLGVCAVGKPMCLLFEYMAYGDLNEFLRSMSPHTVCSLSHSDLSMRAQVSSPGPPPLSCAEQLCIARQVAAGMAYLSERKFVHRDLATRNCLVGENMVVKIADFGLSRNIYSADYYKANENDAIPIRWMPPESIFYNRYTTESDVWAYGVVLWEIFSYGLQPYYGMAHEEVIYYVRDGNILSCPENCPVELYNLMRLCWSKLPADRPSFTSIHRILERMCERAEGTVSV
In words: Inhibition of human MUSK at 500 nM by HotSpot assay relative to control.

The target in assay [8] is T4, Testis-specific serine/threonine-protein kinase 2 (Homo sapiens) (UniProt Q96PF2).
T4 sequence (whole entry): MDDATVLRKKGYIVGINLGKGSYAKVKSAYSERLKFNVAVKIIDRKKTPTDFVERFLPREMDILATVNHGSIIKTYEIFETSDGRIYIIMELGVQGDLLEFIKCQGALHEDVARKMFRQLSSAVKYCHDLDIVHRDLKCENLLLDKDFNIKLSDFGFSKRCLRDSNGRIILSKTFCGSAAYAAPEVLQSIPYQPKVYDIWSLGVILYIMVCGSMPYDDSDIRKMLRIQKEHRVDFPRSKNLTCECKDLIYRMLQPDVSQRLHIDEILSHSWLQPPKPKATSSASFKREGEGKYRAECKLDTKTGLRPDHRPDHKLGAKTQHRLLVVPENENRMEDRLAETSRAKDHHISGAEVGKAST
Kind of assay: Inhibition of human TSSK2 at 500 nM by HotSpot assay relative to control.

Assay [9] has as its target Non-receptor tyrosine-protein kinase TYK2 (Homo sapiens) (UniProt P29597). In words: Inhibition of human TYK2 at 500 nM by HotSpot assay relative to control.

Sequence of Dual specificity mitogen-activated protein kinase kinase 1 (Homo sapiens) (Q02750 whole entry): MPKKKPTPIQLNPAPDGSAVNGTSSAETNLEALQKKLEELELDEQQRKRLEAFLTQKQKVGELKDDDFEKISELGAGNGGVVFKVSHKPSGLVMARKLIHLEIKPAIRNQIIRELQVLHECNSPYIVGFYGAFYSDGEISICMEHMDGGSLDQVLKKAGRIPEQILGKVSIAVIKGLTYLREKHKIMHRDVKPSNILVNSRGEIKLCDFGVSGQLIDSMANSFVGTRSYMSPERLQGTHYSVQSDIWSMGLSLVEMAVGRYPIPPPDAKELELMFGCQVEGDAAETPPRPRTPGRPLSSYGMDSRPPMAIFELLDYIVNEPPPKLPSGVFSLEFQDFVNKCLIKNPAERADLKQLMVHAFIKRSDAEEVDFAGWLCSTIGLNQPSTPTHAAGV
Sequence of Calcium/calmodulin-dependent protein kinase type 1D (Homo sapiens) (Q8IU85 whole entry, looked up): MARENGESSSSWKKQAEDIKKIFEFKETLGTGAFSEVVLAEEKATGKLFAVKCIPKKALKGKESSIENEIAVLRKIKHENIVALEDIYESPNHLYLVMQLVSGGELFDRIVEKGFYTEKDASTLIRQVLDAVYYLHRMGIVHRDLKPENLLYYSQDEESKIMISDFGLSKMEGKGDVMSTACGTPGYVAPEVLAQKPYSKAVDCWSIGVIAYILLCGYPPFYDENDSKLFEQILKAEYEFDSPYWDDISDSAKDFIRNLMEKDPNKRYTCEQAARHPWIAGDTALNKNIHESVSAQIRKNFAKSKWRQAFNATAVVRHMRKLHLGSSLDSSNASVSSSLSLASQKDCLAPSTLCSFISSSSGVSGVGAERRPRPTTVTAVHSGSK
Sequence of Cyclin-dependent kinase 5/CDK5 activator 1 (Homo sapiens) (Q00535 whole entry): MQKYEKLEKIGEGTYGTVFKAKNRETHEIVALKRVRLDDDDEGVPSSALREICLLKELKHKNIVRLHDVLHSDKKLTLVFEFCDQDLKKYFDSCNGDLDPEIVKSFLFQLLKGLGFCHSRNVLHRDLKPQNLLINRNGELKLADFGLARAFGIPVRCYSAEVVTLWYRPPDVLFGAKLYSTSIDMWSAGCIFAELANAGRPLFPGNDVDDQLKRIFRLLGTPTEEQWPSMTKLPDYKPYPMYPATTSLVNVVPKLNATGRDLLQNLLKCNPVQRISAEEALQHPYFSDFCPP
Sequence of Cyclin-dependent kinase 5/CDK5 activator 1 (Homo sapiens) (Q15078 99-307 partner limits assumed): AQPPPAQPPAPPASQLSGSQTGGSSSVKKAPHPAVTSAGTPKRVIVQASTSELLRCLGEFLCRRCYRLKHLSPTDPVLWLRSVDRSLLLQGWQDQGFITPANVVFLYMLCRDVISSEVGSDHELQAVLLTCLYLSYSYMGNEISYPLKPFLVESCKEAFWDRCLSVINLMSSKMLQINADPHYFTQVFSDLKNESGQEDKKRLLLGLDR
Sequence of Non-receptor tyrosine-protein kinase TYK2 (Homo sapiens) (P29597 whole entry): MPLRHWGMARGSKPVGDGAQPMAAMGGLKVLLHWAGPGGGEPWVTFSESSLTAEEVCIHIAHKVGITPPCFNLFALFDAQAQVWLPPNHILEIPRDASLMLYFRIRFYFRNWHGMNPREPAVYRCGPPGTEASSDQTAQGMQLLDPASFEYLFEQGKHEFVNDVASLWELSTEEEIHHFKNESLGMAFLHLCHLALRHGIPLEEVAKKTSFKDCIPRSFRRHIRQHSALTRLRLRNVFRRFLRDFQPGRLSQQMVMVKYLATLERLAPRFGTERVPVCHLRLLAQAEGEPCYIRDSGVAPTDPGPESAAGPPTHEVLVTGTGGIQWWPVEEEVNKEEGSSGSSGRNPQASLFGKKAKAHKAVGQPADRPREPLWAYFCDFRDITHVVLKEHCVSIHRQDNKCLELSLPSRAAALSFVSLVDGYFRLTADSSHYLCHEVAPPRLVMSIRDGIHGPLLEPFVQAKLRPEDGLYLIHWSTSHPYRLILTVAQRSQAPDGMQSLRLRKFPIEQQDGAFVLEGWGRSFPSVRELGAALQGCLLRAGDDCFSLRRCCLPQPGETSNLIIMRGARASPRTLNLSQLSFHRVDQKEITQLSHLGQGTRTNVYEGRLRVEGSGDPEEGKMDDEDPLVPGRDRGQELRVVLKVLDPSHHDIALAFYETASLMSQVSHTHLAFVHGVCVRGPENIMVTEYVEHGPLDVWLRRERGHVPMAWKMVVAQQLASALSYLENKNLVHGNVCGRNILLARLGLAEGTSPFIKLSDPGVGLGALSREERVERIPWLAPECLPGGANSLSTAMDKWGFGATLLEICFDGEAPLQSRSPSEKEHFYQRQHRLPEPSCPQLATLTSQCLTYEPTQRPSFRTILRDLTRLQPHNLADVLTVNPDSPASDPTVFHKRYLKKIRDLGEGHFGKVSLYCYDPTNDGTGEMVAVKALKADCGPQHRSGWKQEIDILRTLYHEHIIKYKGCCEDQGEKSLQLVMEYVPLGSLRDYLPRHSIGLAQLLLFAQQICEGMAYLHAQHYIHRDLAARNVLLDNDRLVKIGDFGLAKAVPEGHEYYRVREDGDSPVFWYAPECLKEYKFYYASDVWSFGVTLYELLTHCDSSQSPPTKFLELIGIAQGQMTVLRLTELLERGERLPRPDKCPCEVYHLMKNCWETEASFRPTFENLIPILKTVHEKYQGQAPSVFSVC

In general, inhibition refers to the drop in the measured response relative to a control, in per cent. Regarding `Oc1n[nH]c2nnc(-c3c(-c4ccccc4)nn4ccccc34)cc12`, the inhibition in assay [1] was 4.23%; in assay [2], -3.04%; in [3] it was -2.59%; in assay [4] it was -3.16%; in assay [5], 11.6%; in assay [6] it was 5.15%. Moreover, the inhibition in assay [7] is 3.28%; in [8], -1.61%; in assay [9], -3.67%.

Turning to `Nc1n[nH]c2nnc(-c3c(-c4ccccc4)nn4ccccc34)cc12`, the inhibition is 3.87% in assay [1]; 4.06% in assay [2]; -4.88% in assay [3]; -0.33% in assay [4]; 2.91% in [5]; 5.65% in [6]. For the same compound, the inhibition in assay [7] was 3.22%; in assay [8], -4.17%; in assay [9] it was -3.67%.

The values are drawn from ChEMBL document CHEMBL5653615 (J Biol Chem, 2013).
